Results taken from US6475434B1, “Composition and methods for preventing and removing biofilm embedded microorganisms from the surface of medical devices” (Baylor College of Medicine, priority 1998, dated 2002).
In brackets after ≈: the same amount, converted by molar mass.

Experiments:
[1] = system: Staphylococcus epidermidis; test: Minimal bactericidal concentration for the studied strain; format: cell-based; conditions: studied strain of Staphylococcus epidermidis
Method: Treatment phase: The lumens of the eight catheters were treated with biofilm penetrating composition solutions as described in Table I. The N-acetylcysteine and rifampin are used at a concentration equivalent to ten times the corresponding minimal bactericidal concentration of the N-aceylcysteine and the rifampin for the studied strain of Staphylococcus epidermidis (3.1 mg/ml and 0.02 μg/ml respectively).

[2] = system: Staphylococcus epidermidis; test: Flush cultures of biofilm-colonised catheter lumens after treatment solutions (Example 1); format: cell-based
Method: Seeding phase: A dynamic flow sterile system that consisted of an infusion bad containing a bacterial suspension of Staphylococcus epidermidis (4×10^5 cfu/ml of saline) that infused at equal (about 41 ml/hour) into the lumens of eight ethylene oxide gas sterilized, 7-french, 20 cm polyurethane, single-lumen catheters for 12 hours at room temperature. The catheters were covered plastic sheath to ensure sterility of the surfaces. The bacterial suspension drained from the catheters into beakers.
Growth phase: The lumens of the four catheters were infused with sterile trypticase soy broth (“TSB”) at a rate of 10 ml/hour for 24 hours to allow for biofilm formation. The infused broth drained from the catheters into the beakers. […]
The clamps were removed from each end of Catheters 1, 3, 5, and 7 and the treatment solutions were drained. […] Hundred microliter aliquots of the collected portions of the flushed TSB and 10-fold serial dilutions were inoculated onto chocolate agar plates and colony counts were determined after incubation of agar plates at 37° C. for 48 hours.

With CC(=O)N[C@@H](CS)C(=O)O [N-acetylcysteine] as the compound, how does the MBC [1] read?
Its MBC is 3100 µg/mL (≈ 19 mM).

What about the “effect on biofilm and biofilm embedded microorganisms (in words)” value ([2]; Example 1 conclusion, 31 mg/ml in phosphate buffered saline) of the same compound?
The value was “effectively penetrates and breaks-up the biofilm and kills biofilm embedded microorganisms”.

What about the “antimicrobial activity against biofilm embedded microorganisms compared with rifampin (in words)” value ([2]; assessed by flush cultures, at the concentration used) of the same compound?
The value was “surpasses the antimicrobial activity of rifampin”.

With CO[C@H]1/C=C/O[C@@]2(C)Oc3c(C)c(O)c4c(O)c(c(/C=N/N5CCN(C)CC5)c(O)c4c3C2=O)NC(=O)/C(C)=C\C=C\[C@H](C)[C@H](O)[C@@H](C)[C@@H](O)[C@@H](C)[C@H](OC(C)=O)[C@@H]1C [rifampin] as the compound, how does the MBC [1] read?
Its MBC is 0.02 µg/mL (≈ 2.43e-05 mM).
